Measured values as given in PubChem BioAssay AID2060894 (Molecular Pharmacology Branch, DTP, NCI, 2025).
Each block holds one compound with its values, some of them ahead of it.

Test system: K12877-001-R-J1-PDC complex spheroid viability
Test: Anticancer human tumor K12877-001-R-J1-PDC patient-derived lung adenocarcinoma cell line growth inhibition [RAS]
Settings: for IC50: curve of first compound; for viability, T/C: stronger effect = lower value
Excerpt: RAS pathway inhibitors in Combinations in Complex Spheroids
A high-throughput screen of multi-cell type tumor spheroids was designed to identify active combinations of RAS pathway inhibitors and targeted small molecules. Complex spheroids include a stromal component modeled by human endothelial cells (HUVEC) and fibroblasts modeled by human mesenchymal stem cells (MSCs). The concentration ranges selected for each drug and investigational agent were based upon clinically achievable concentrations if the clinical Cmax of the agent was known.
Compounds. The drugs and investigational agents: abemaciclib (NSC768073), cobimetinib (NSC768068), divarasib (GDC6063, NSC841802), docetaxel (NSC628503), GDC-1971 (RLY-1971, NSC841576), gemcitabine (NSC613327), inavolisib (NSC800729), ipatasertib (NSC767898), KB-0742 (NSC834161), MRTX-1133 (NSC836407), osimertinib (NSC779217), RMC-4630 (NSC839698), RMC-6236 (NSC851965), RMC-6291 (NSC852671), Ro-3306 (NSC812927), sapanisertib (NSC764658), SN-38 (NSC673596), staurosporine (NSC755774), SY5609 (NSC837396), and tovorafenib (DAY101, NSC766906), were obtained from the National Cancer Institute (NCI) Developmental Therapeutics Program Chemical Repository. The FDA-approved anticancer drug set is available from the NCI Developmental Therapeutics Program. […] The stock solutions were prepared in dimethyl sulfoxide (DMSO, Sigma-Aldrich, St. Louis, MO, cat. D2650) at 800-fold the tested concentration and stored at -70 degrees C prior to their use. All drugs and investigational agents were tested over a range starting from a high concentration at or near the clinical Cmax and decreasing in half-log increments. If the clinical Cmax for an agent had not been determined, the highest concentration tested was 10 microM.
Cell Culture. All cells were maintained in an incubator at 37 degrees C and 5% CO2 with 95% humidity. The PDC lines were cultured according to standard operating procedures established by the NCI PDMR. All PDCs were thawed and cultured in Matrigel-coated flasks prepared with a working solution of 1X Ham's F-12 nutrient mix, without supplementation (Invitrogen, Waltham, MA, cat. 11765054), 100 U/mL penicillin-streptomycin (Invitrogen, cat. 15140122), and 2.5% Matrigel (Corning Inc., Corning, NY, cat. 354248) for the first three passages. The 362531-283-R-J2-PDC and 782815-120-R-J1-PDC lines were cultured in 6C/Colon 1B media, which includes advanced DMEM/F-12 (Thermo Fisher Scientific, cat. 12634028), 10 mM HEPES (Thermo Fisher Scientific, cat. 15630080), 1X GlutaMAX supplement (Thermo Fisher Scientific, cat. 35050061), 0.1 mg/mL primocin (InvivoGen, San Diego, CA, cat. ant-pm-2), 10% defined fetal bovine serum, heat inactivated (HyClone Laboratories Inc., Logan, UT, cat. SH30070.03HI), 50% L-WRN conditioned media (ATCC, cat. CRL-3276), 1.25 mM N-Acetyl-L-cysteine (Sigma-Aldrich, cat. A9165), 10 mM nicotinamide (Sigma-Aldrich, cat. N0636), 1X B-27 supplement (Thermo Fisher Scientific, cat. 17504044), 1X N-2 supplement (Thermo Fisher Scientific, cat. 17502048), 50 ng/mL human EGF (Thermo Fisher Scientific, cat. PHG0311), and 10 microM Y-27632 dihydrochloride (Tocris Bioscience, cat. 1254). The K12877-001-R-J1-PDC line was cultured in 6I media, which includes all 6C/Colon 1B media plus 10 ng/mL human FGF-10 (PeproTech, cat. 100-26), 1 ng/mL human FGF-2 (PeproTech, cat. 100-18B), 1 µM prostaglandin E2 (Tocris Bioscience, cat. 2296), […] hydrocortisone (Sigma-Aldrich, cat. H4001), and […] bovine insulin (Sigma-Aldrich, cat. I6634). The K86415-001-R-J1-PDC line was cultured in 6D media, which includes all 6C/Colon 1B media components minus the L-WRN conditioned media. The 485176-168-R4-J1-PDC was cultured in PANC media, which includes all 6C/Colon 1B media plus 100 ng/mL human FGF-10 (PeproTech, cat. 100-26), 500 nM SB-431542 (Selleckchem, cat. S1067), and 10 nM gastrin (Tocris Bioscience, cat. 3006). […]

[1] = second compound 0.0316 µM, first compound 0.0316 µM
[2] = second compound 0.0316 µM, first compound 0.1 µM
[3] = second compound 0.0316 µM, first compound 0.316 µM
[4] = second compound 0.0316 µM, first compound 1 µM
[5] = second compound 0.0316 µM, first compound 3.16 µM
[6] = second compound 0.0316 µM, first compound 10 µM
[7] = second compound 0.1 µM, first compound 0.0316 µM
[8] = second compound 0.1 µM, first compound 0.1 µM
[9] = second compound 0.1 µM, first compound 0.316 µM
[10] = second compound 0.1 µM, first compound 1 µM
[11] = second compound 0.1 µM, first compound 3.16 µM
[12] = second compound 0.1 µM, first compound 10 µM
[13] = second compound 0.316 µM, first compound 0.0316 µM
[14] = second compound 0.316 µM, first compound 0.1 µM
[15] = second compound 0.316 µM, first compound 0.316 µM
[16] = second compound 0.316 µM, first compound 1 µM
[17] = second compound 0.316 µM, first compound 3.16 µM
[18] = second compound 0.316 µM, first compound 10 µM
[19] = second compound 1 µM, first compound 0.0316 µM
[20] = second compound 1 µM, first compound 0.1 µM
[21] = second compound 1 µM, first compound 0.316 µM
[22] = second compound 1 µM, first compound 1 µM
[23] = second compound 1 µM, first compound 3.16 µM
[24] = second compound 1 µM, first compound 10 µM
[25] = second compound 3.16 µM, first compound 0.0316 µM
[26] = second compound 3.16 µM, first compound 0.1 µM
[27] = second compound 3.16 µM, first compound 0.316 µM
[28] = second compound 3.16 µM, first compound 1 µM
[29] = second compound 3.16 µM, first compound 3.16 µM
[30] = second compound 3.16 µM, first compound 10 µM
[31] = second compound 10 µM, first compound 0.0316 µM
[32] = second compound 10 µM, first compound 0.1 µM
[33] = second compound 10 µM, first compound 0.316 µM
[34] = second compound 10 µM, first compound 1 µM
[35] = second compound 10 µM, first compound 3.16 µM
[36] = second compound 10 µM, first compound 10 µM
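Further: spheroids exposed to agents for one week before readout.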

IC50 (second compound 0.0316 µM): 6.15 µM
IC50 (second compound 0.1 µM): 5.29 µM
IC50 (second compound 0.316 µM): 7.95 µM
IC50 (second compound 1 µM): 5.79 µM
IC50 (second compound 3.16 µM): 6.06 µM
IC50 (second compound 10 µM): 3.01 µM
Structure (SMILES): CC(C)NCC(C(=O)N1CCN(c2ncnc3c2C(C)CC3O)CC1)c1ccc(Cl)cc1 (stereo unspecified) + C#Cc1c(F)ccc2cc(O)cc(-c3ncc4c(N5CC6CCC(C5)N6)nc(OCC56CCCN5CC(F)C6)nc4c3F)c12
viability, T/C [1]: 101%
viability, T/C [2]: 95.4%
viability, T/C [3]: 100%
viability, T/C [4]: 86.5%
viability, T/C [5]: 58.4%
viability, T/C [6]: 44%
viability, T/C [7]: 90%
viability, T/C [8]: 103%
viability, T/C [9]: 87.7%
viability, T/C [10]: 96.6%
viability, T/C [11]: 58.8%
viability, T/C [12]: 39%
viability, T/C [13]: 105%
viability, T/C [14]: 103%
viability, T/C [15]: 78.9%
viability, T/C [16]: 92.4%
viability, T/C [17]: 62%
viability, T/C [18]: 45.5%
viability, T/C [19]: 104%
viability, T/C [20]: 103%
viability, T/C [21]: 87.6%
viability, T/C [22]: 95.3%
viability, T/C [23]: 55.4%
viability, T/C [24]: 45.1%
viability, T/C [25]: 105%
viability, T/C [26]: 102%
viability, T/C [27]: 99.4%
viability, T/C [28]: 91.1%
viability, T/C [29]: 63.6%
viability, T/C [30]: 39.4%
viability, T/C [31]: 98%
viability, T/C [32]: 93.3%
viability, T/C [33]: 89%
viability, T/C [34]: 94.1%
viability, T/C [35]: 48%
viability, T/C [36]: 32.8%

IC50 (second compound 0.0316 µM): 0.0253 µM
IC50 (second compound 0.1 µM): 0.0265 µM
IC50 (second compound 0.316 µM): 0.027 µM
IC50 (second compound 1 µM): 0.028 µM
IC50 (second compound 3.16 µM): 0.0255 µM
IC50 (second compound 10 µM): 0.0256 µM
Structure (SMILES): CC(C)n1nc(-c2ccc3oc(N)nc3c2)c2c(N)ncnc21 + C#Cc1c(F)ccc2cc(O)cc(-c3ncc4c(N5CC6CCC(C5)N6)nc(OCC56CCCN5CC(F)C6)nc4c3F)c12
viability, T/C (second compound 0.0316 µM, first compound 0.000316 µM): 105%
viability, T/C (second compound 0.0316 µM, first compound 0.001 µM): 88.2%
viability, T/C (second compound 0.0316 µM, first compound 0.00316 µM): 83%
viability, T/C (second compound 0.0316 µM, first compound 0.01 µM): 93.9%
viability, T/C [1]: 39.8%
viability, T/C [2]: 24.5%
viability, T/C (second compound 0.1 µM, first compound 0.000316 µM): 99.2%
viability, T/C (second compound 0.1 µM, first compound 0.001 µM): 86.2%
viability, T/C (second compound 0.1 µM, first compound 0.00316 µM): 82.4%
viability, T/C (second compound 0.1 µM, first compound 0.01 µM): 94.2%
viability, T/C [7]: 42.7%
viability, T/C [8]: 24%
viability, T/C (second compound 0.316 µM, first compound 0.000316 µM): 97%
viability, T/C (second compound 0.316 µM, first compound 0.001 µM): 102%
viability, T/C (second compound 0.316 µM, first compound 0.00316 µM): 88.1%
viability, T/C (second compound 0.316 µM, first compound 0.01 µM): 98.8%
viability, T/C [13]: 42.5%
viability, T/C [14]: 23.2%
viability, T/C (second compound 1 µM, first compound 0.000316 µM): 101%
viability, T/C (second compound 1 µM, first compound 0.001 µM): 104%
viability, T/C (second compound 1 µM, first compound 0.00316 µM): 91.7%
viability, T/C (second compound 1 µM, first compound 0.01 µM): 101%
viability, T/C [19]: 44.1%
viability, T/C [20]: 24%
viability, T/C (second compound 3.16 µM, first compound 0.000316 µM): 114%
viability, T/C (second compound 3.16 µM, first compound 0.001 µM): 93.3%
viability, T/C (second compound 3.16 µM, first compound 0.00316 µM): 91.7%
viability, T/C (second compound 3.16 µM, first compound 0.01 µM): 88.1%
viability, T/C [25]: 40.9%
viability, T/C [26]: 24.1%
viability, T/C (second compound 10 µM, first compound 0.000316 µM): 101%
viability, T/C (second compound 10 µM, first compound 0.001 µM): 84.5%
viability, T/C (second compound 10 µM, first compound 0.00316 µM): 82.7%
viability, T/C (second compound 10 µM, first compound 0.01 µM): 79.5%
viability, T/C [31]: 42.6%
viability, T/C [32]: 19.5%

IC50 (second compound 0.0316 µM): > 10 µM
IC50 (second compound 0.1 µM): > 10 µM
IC50 (second compound 0.316 µM): > 10 µM
IC50 (second compound 1 µM): > 10 µM
IC50 (second compound 3.16 µM): > 10 µM
IC50 (second compound 10 µM): > 10 µM
Structure (SMILES): C[C@@H](NC(=O)c1ncnc(N)c1Cl)c1ncc(C(=O)Nc2cc(C(F)(F)F)c(Cl)cn2)s1 + C#Cc1c(F)ccc2cc(O)cc(-c3ncc4c(N5CC6CCC(C5)N6)nc(OCC56CCCN5CC(F)C6)nc4c3F)c12
viability, T/C [1]: 108%
viability, T/C [2]: 101%
viability, T/C [3]: 113%
viability, T/C [4]: 107%
viability, T/C [5]: 99%
viability, T/C [6]: 102%
viability, T/C [7]: 94.4%
viability, T/C [8]: 96.2%
viability, T/C [9]: 93.5%
viability, T/C [10]: 103%
viability, T/C [11]: 92.5%
viability, T/C [12]: 97.9%
viability, T/C [13]: 96.9%
viability, T/C [14]: 105%
viability, T/C [15]: 97.4%
viability, T/C [16]: 101%
viability, T/C [17]: 108%
viability, T/C [18]: 98.6%
viability, T/C [19]: 87.7%
viability, T/C [20]: 105%
viability, T/C [21]: 102%
viability, T/C [22]: 108%
viability, T/C [23]: 106%
viability, T/C [24]: 98.9%
viability, T/C [25]: 107%
viability, T/C [26]: 104%
viability, T/C [27]: 104%
viability, T/C [28]: 106%
viability, T/C [29]: 111%
viability, T/C [30]: 98.3%
viability, T/C [31]: 106%
viability, T/C [32]: 91.7%
viability, T/C [33]: 107%
viability, T/C [34]: 98%
viability, T/C [35]: 107%
viability, T/C [36]: 96.7%
